Patent publication US20260327246A1, “FUSED RING KRAS INHIBITORS FOR TREATING DISEASE” (BLOSSOMHILL THERAPEUTICS, INC., priority 2023, published 2026)

Tests used:
SW620 (KRAS G12V) = experiment: Cell Proliferation Assay (CellTiter-Glo 2.0), SW620; assay type: cell-based; details: Homo sapiens, SW-620; SW620 (KRAS G12V) cells; 72 hours at 37° C., 5% CO2; read-out: Anti-proliferation IC50, SW620 (KRAS G12V)
Protocol: (§1) Two thousand KRAS mutant cells per well are seeded in 384-well white plate and then treated with indicated compounds for 72 hours at 37° C. and 5% CO2. Cell proliferation is measured using CellTiter-Glo 2.0 luciferase-based ATP detection assay (Promega, Madison, WI) following the manufacturer's protocol. IC50 values are determined using Prism software (GraphPad Software, San Diego, CA).

GP2D (KRAS G12D) = experiment: Cell Proliferation Assay (CellTiter-Glo 2.0), GP2D; assay type: cell-based; details: GP2D (KRAS G12D) cells; 72 hours at 37° C., 5% CO2; read-out: Anti-proliferation IC50, GP2D (KRAS G12D)
Protocol: as §1

SMILES	IC50 (SW620 (KRAS G12V))	IC50 (GP2D (KRAS G12D))
C#Cc1c(F)ccc2cc(O)cc(-c3nc4c5c(nc(OC[C@@]67CCCN6C[C@H](F)C7)nc5c3F)N3CCCOC[C@H]3CC4)c12 [compound 1, 5-ethynyl-6-fluoro-4-[(8aR)-4-fluoro-2-{[(2R,7aS)-2-fluorotetrahydro-1H-pyrrolizin-7a(5H)-yl]methoxy}-7,8,8a,9,12,13-hexahydro-11H-10-oxa-1,3,6,13a-tetraazanaphtho[1,8-ab]heptalen-5-yl]naphthalen-2-ol]	3.6 nM	1.1 nM
C#Cc1c(F)ccc2cc(O)cc(-c3nc4c5c(nc(OC[C@@]67CCCN6C[C@H](F)C7)nc5c3F)N3CCCOC[C@@H]3CC4)c12 [compound 2, 5-ethynyl-6-fluoro-4-[(8aS)-4-fluoro-2-{[(2R,7aS)-2-fluorotetrahydro-1H-pyrrolizin-7a(5H)-yl]methoxy}-7,8,8a,9,12,13-hexahydro-11H-10-oxa-1,3,6,13a-tetraazanaphtho[1,8-ab]heptalen-5-yl]naphthalen-2-ol]	592 nM	85 nM
CCc1c(F)ccc2cc(O)cc(-c3nc4c5c(nc(OC[C@@]67CCCN6C[C@H](F)C7)nc5c3F)N3CCCOC[C@H]3CC4)c12 [compound 3, 5-ethyl-6-fluoro-4-[(8aR)-4-fluoro-2-{[(2R,7aS)-2-fluorotetrahydro-1H-pyrrolizin-7a(5H)-yl]methoxy}-7,8,8a,9,12,13-hexahydro-11H-10-oxa-1,3,6,13a-tetraazanaphtho[1,8-ab]heptalen-5-yl]naphthalen-2-ol]	11 nM	6.3 nM
CCc1c(F)ccc2cc(O)cc(-c3nc4c5c(nc(OC[C@@]67CCCN6C[C@H](F)C7)nc5c3F)N3CCCOC[C@@H]3CC4)c12 [compound 4, 5-ethyl-6-fluoro-4-[(8aS)-4-fluoro-2-{[(2R,7aS)-2-fluorotetrahydro-1H-pyrrolizin-7a(5H)-yl]methoxy}-7,8,8a,9,12,13-hexahydro-11H-10-oxa-1,3,6,13a-tetraazanaphtho[1,8-ab]heptalen-5-yl]naphthalen-2-ol]	304 nM	135 nM
C#Cc1c(F)ccc2cc(O)cc(-c3nc4c5c(nc(OC[C@@]67CCCN6C[C@H](F)C7)nc5c3F)N3CCOCC[C@H]3CC4)c12 [compound 5, 5-ethynyl-6-fluoro-4-[(8aR)-4-fluoro-2-{[(2R,7aS)-2-fluorotetrahydro-1H-pyrrolizin-7a(5H)-yl]methoxy}-8,8a,9,10,12,13-hexahydro-7H-11-oxa-1,3,6,13a-tetraazanaphtho[1,8-ab]heptalen-5-yl]naphthalen-2-ol]	20 nM	4.2 nM
CCc1c(F)ccc2cc(O)cc(-c3nc4c5c(nc(OC[C@@]67CCCN6C[C@H](F)C7)nc5c3F)N3CCOCC[C@H]3CC4)c12 [compound 6, 5-ethyl-6-fluoro-4-[(8aR)-4-fluoro-2-{[(2R,7aS)-2-fluorotetrahydro-1H-pyrrolizin-7a(5H)-yl]methoxy}-8,8a,9,10,12,13-hexahydro-7H-11-oxa-1,3,6,13a-tetraazanaphtho[1,8-ab]heptalen-5-yl]naphthalen-2-ol]	26 nM	21 nM
C#Cc1c(F)ccc2cc(O)cc(-c3nc4c5c(nc(OC[C@@]67CCCN6C[C@H](F)C7)nc5c3F)N3CCCC[C@H]3COC4)c12 [compound 9, 5-ethynyl-6-fluoro-4-[(6aS)-1-fluoro-12-{[(2R,7aS)-2-fluorotetrahydro-1H-pyrrolizin-7a(5H)-yl]methoxy}-6,6a,7,8,9,10-hexahydro-4H-5-oxa-3,10a,11,13-tetraazabenzo[4,5]cycloocta[1,2,3-de]naphthalen-2-yl]naphthalen-2-ol]	641 nM	102 nM
C#Cc1c(F)ccc2cc(O)cc(-c3nc4c5c(nc(OC[C@@]67CCCN6C[C@H](F)C7)nc5c3F)N3CCC[C@H]3COC4)c12 [compound 10, 5-ethynyl-6-fluoro-4-[(6aS)-1-fluoro-11-{[(2R,7aS)-2-fluorotetrahydro-1H-pyrrolizin-7a(5H)-yl]methoxy}-6a,7,8,9-tetrahydro-4H,6H-5-oxa-3,9a,10,12-tetraazacyclopenta[4,5]cycloocta[1,2,3-de]naphthalen-2-yl]naphthalen-2-ol]	3000 nM	3000 nM
